Measured values reported in US20220305121A1, “N-ARYL SULFONAMIDE DERIVATIVES AS VACCINE ADJUVANT” (The Regents of the University of California, priority 2019, published 2022).
“Also recorded” adds a separate entry of the source.

Assays:
Type in all cases: cell-based
NF-κB and ISRE = NF-κB and ISRE reporter assays (primary screens), statements in words for both assays; settings: with LPS or IFN-α as primary stimulus; compared to compound 1
Protocol: (§1) THP1-Blue™ NF-κB cells were plated in 96-well plates at 10^5 cells/well in 100 μl RPMI supplemented with 10% fetal bovine serum (FBS, Omega Scientific, Inc., Tarzana, Calif.), 100 U/mL penicillin, 100 μg/ml streptomycin (Thermo Fisher Scientific) and Normocin (Invivogen). LPS was prepared in assay medium at a concentration of 20 μg/mL. Tested compounds were dissolved in DMSO at 1 mM as a stock solution and were further diluted in the LPS solution to a final concentration of 10 μM. 100 μL of this solution was then transferred to the plated cells to obtain a final concentration of LPS at 10 μg/mL and compound at 5 μM ([…]). The culture supernatants were harvested after a 20 hour incubation period, SEAP activity in the culture supernatants was determined by a colorimetric assay using QuantiBlue (Invivogen). Plate absorbance was read at 630 nm using a Tecan Infinite M200 plate reader (Männedorf, Switzerland). The SEAP concentration was directly proportional to NF-κB activity, which was 2-point normalized to yield activity of compound 1+LPS as 200% and activity for LPS as 100%.
(§2) ISRE-bla THP-1 cells were plated in 96-well plates at 5×10^4 cells/well in 50 μl RPMI supplemented with 10% dialyzed FBS (Atlanta Biologicals, Inc., GA), 0.1 mM nonessential amino acids, 1 mM sodium pyruvate, 100 U/mL penicillin and 100 μg/ml streptomycin. Type I IFN-α (R&D Systems, #11200-2) solution was prepared in assay medium at a concentration of 200 U/mL Tested compounds were dissolved in DMSO at 1 mM and were further diluted in the IFN-α solution to a final concentration of 10 μM. 50 μL of this solution was then transferred to the plated cells to obtain a final concentration of IFN-α at 100 U/mL and compound at 5 μM ([…]), The cells were incubated for 16 hours, after which 20 μL of 6×LiveBLAzer™ FRET B/G Substrate (CCF4-AM) mixture (prepared according to the manufacturer's instructions) was added to each well, Plates were incubated at room temperature in the dark for 3 hours. Fluorescence was measured on a Tecan Infinite M200 plate reader at an excitation wavelength of 405 nm, and emission wavelengths of 465 nm and 535 nm. Background values (cell free wells at the same fluorescence wavelength) were subtracted from the raw fluorescence intensity values and the emission ratios were calculated as the ratio of background subtracted fluorescence intensities at 465 nm to background subtracted fluorescence intensities at 535 nm. The ISRE activity values for these compounds were 2-point normalized to yield activity of compound 1+IFN-α as 200% and activity for IFN-α as 100%.
(§3) Measurement of NF-κB Activation Using THP1-Blue NF-κB Cells. THP1-Blue NF-κB cells were plated in 96-well plates at 10^5 cells/well in 100 μL of RPMI supplemented with 10% fetal bovine serum (FBS, Omega Scientific, Inc., Tarzana, Calif.), 100 U/mL penicillin, 100 μg/mL streptomycin (Thermo Fisher Scientific), and Normocin (Invivogen). LPS was prepared in assay medium at a concentration of 20 μg/mL. Tested compounds were dissolved in DMSO at 1 mM as a stock solution and were further diluted in the LPS solution to a final concentration of 10 μM. 100 μL of this solution was then transferred to the plated cells to obtain a final concentration of LPS at 10 μg/mL and compound at 5 μM ([…]). The culture supernatants were harvested after a 20 hours incubation period. SEAP activity in the culture supernatants was determined by a colorimetric assay using QuantiBlue (Invivogen). Plate absorbance was read at 630 nm using a Tecan Infinite M200 plate reader (Mannedorf, Switzerland). The SEAP concentration was directly proportional to NF-κB activity, which was two-point normalized to yield activity of compound 1+LPS as 200% and activity for LPS as 100%.
Measurement of ISRE Activity in ISRE-bla THP-1 Cells. […]

ISRE = assay: Measurement of ISRE activity in ISRE-bla THP-1 cells (FRET, IFN-α as primary stimulus); settings: for activity at 5 µM: read-out: ISRE % Activation
Protocol: as §2
Measurement of ISRE Activity in ISRE-bla THP-1 Cells. ISREbla THP-1 cells were plated in 96-well plates at 5×10^4 cells/well in 50 μL of RPMI supplemented with 10% dialyzed FBS (Atlanta Biologicals, Inc., GA), 0.1 mM nonessential amino acids, 1 mM sodium pyruvate, 100 U/mL penicillin, and 100 μg/mL streptomycin. Type I IFN-α (R&D Systems, no. 11200-2) solution was prepared in assay medium at a concentration of 200 U/mL. Tested compounds were dissolved in DMSO at 1 mM and were further diluted in the IFN-α solution to a final concentration of 10 μM. 50 μL of this solution was then transferred to the plated cells to obtain a final concentration of IFN-α at 100 U/mL and compound at 5 μM ([…]). The cells were incubated for 16 hours, after which 20 μL of 6×LiveBLAzer FRET B/G substrate (CCF4-AM) mixture (prepared according to the manufacturer's instructions) was added to each well. Plates were incubated at room temperature in the dark for 3 hours. Fluorescence was measured on a Tecan Infinite M200 plate reader at an excitation wavelength of 405 nm and emission wavelengths of 465 and 535 nm. Background values (cell free wells at the same fluorescence wavelength) were subtracted from the raw fluorescence intensity values and the emission ratios were calculated as the ratio of background subtracted fluorescence intensities at 465 nm to background subtracted fluorescence intensities at 535 nm. The ISRE activity values for these compounds were two-point normalized to yield activity of compound 1+IFN-α as 200% and activity for IFN-α as 100%.

NF-κB = assay: Measurement of NF-κB activation using THP1-Blue NF-κB cells (SEAP reporter, LPS as primary stimulus)
Protocol: as §1, §3

THP-1 cells = assay: Cell viability assay (MTT); settings: compound 5 μM, 18 hours incubation; normalized to DMSO as 100%; mean
Protocol: THP-1 cells were plated in 96-well plates (10^5 cells/well) in 100 μL RPMI supplemented with 10% FBS, 100 U/mL penicillin and 100 μg/ml streptomycin. Compounds were dissolved in DMSO at 1 mM stock solution and were further diluted to 10 μM in the assay medium. 100 μL of this solution was added to the cells to obtain a final compound concentration of 5 μM ([…]). After 18 hours incubation, a solution of MTT in assay media (0.5 mg/mL) was added to each well and further incubated for 4 to 6 hours, followed by addition of cell lysis buffer (15% w/v SDS and 0.12% v/v 12N HCl aqueous solution), incubated overnight, and then absorbance measured at 570 nm using 650 nm as reference using Tecan Infinite M200 plate reader.
Cell Viability Assay. THP-1 cells were plated in 96-well plates (10^5 cells/well) in 100 μL RPMI supplemented with 10% FBS, 100 U/mL penicillin, and 100 μg/mL streptomycin. Compounds were dissolved in DMSO at 1 mM stock solution and were further diluted to 10 μM in the assay medium. 100 μL of this solution was added to the cells to obtain a final compound concentration of 5 μM ([…]). After 18 h incubation, a solution of MTT in assay media (0.5 mg/mL) was added to each well and further incubated for 4-6 hours, followed by addition of cell lysis buffer (15% w/v SDS and 0.12% v/v 12 N HCl aqueous solution), incubation overnight, and then absorbance was measured at 570 nm using 650 nm as reference using Tecan Infinite M200 plate reader.

[1] = Homo sapiens, THP-1, compound 5 μM + IFN-α 100 U/mL, 16 hours, two point normalized: compound 1 + IFN-α = 200%, IFN-α = 100%, mean
[2] = compound 5 μM + LPS, 20 hour incubation, two point normalized: compound 1 + LPS = 200%, LPS = 100%, mean

Row | EC50 (ISRE; Homo sapiens, THP-1, dose response in the presence of IFN-α) | EC50 (NF-κB; dose response in the presence of LPS) | SMILES | activity in NF-κB and ISRE assays (in words) (NF-κB and ISRE) | activity at 5 µM (ISRE; [1]) | ISRE activity (in words) (ISRE; with IFN-α) | activity at 5 µM (NF-κB; [2]) | MTT % Viability (THP-1 cells) | ISRE % Activation (ISRE; compound 5 μM + IFN-α 100 U/mL, 16 hours, two point normalized: compound 1 + IFN-α = 200%, IFN-α = 100%, mean) | NF-κB % Activation (NF-κB; [2])
1 |  |  | CCOc1ccc(S(=O)(=O)Nc2cc(OC)c(Cl)c(OC)c2)cc1 [Compound 8, N-(4-chloro-3,5-dimethoxyphenyl)-4-ethoxybenzenesulfonamide] | complete loss of activity | 218% | slightly skewed ISRE activity | 179% | 71.4% |  | 
2 |  |  | COc1cc(NS(=O)(=O)c2ccc(O)cc2)c(OC)cc1Cl [Compound 11, N-(4-chloro-2,5-dimethoxyphenyl)-4-hydroxybenzenesulfonamide] | not tolerated | 104% |  | 98% | 85.2% |  | 
3 | 1400 nM | 1850 nM | COc1ccc(S(=O)(=O)Nc2cc(OC)c(Cl)cc2OC)cc1 [Compound 12, N-(4-chloro-2,5-dimethoxyphenyl)-4-methoxybenzenesulfonamide] | tolerated; also recorded: retained activity | 219% |  | 226% | 69.6% |  | 
4 |  |  | CCCOc1ccc(S(=O)(=O)Nc2cc(OC)c(Cl)cc2OC)cc1 [Compound 13, N-(4-chloro-2,5-dimethoxyphenyl)-4-propoxybenzenesulfonamide] | weakly active; also recorded: retained activity | 125% |  | 149% | 71.3% |  | 
5 |  |  | C#CCOc1ccc(S(=O)(=O)Nc2cc(OC)c(Cl)cc2OC)cc1 [Compound 15, N-(4-chloro-2,5-dimethoxyphenyl)-4-(prop-2-yn-1-yloxy) benzenesulfonamide] | inactive |  |  |  | 80.9% | 99% | 97%
6 |  |  | CCCc1ccc(S(=O)(=O)Nc2cc(OC)c(Cl)cc2OC)cc1 [Compound 16, N-(4-chloro-2,5-dimethoxyphenyl)-4-propylbenzenesulfonamide] | loss of activity | 103% |  | 102% | 85.7% |  | 
7 |  |  | COc1cc(NS(=O)(=O)c2ccc(Oc3ccccc3)cc2)c(OC)cc1Cl [Compound 22, N-(4-chloro-2,5-dimethoxyphenyl)-4-phenoxybenzenesulfonamide] | inactive | 95% |  | 98% | 91.3% |  | 
8 |  |  | COc1cccc(S(=O)(=O)Nc2cc(OC)c(Cl)cc2OC)c1 [Compound 23, N-(4-chloro-2,5-dimethoxyphenyl)-3-methoxybenzenesulfonamide] | none of these molecules were active | 104% |  | 116% | 79.6% |  | 
9 |  |  | COc1cc(NS(=O)(=O)c2ccccc2OC)c(OC)cc1Cl [Compound 24, N-(4-chloro-2,5-dimethoxyphenyl)-2-methoxybenzenesulfonamide] | none of these molecules were active | 101% |  | 96% | 92.1% |  | 
10 |  |  | CCOc1ccc(S(=O)(=O)Nc2cc(OC)c(Cl)cc2OC)cc1Br [Compound 25, 3-Bromo-N-(4-chloro-2,5-dimethoxyphenyl)-4-ethoxybenzenesulfonamide] | inactive | 101% |  | 87% | 85.0% |  | 
11 |  |  | COc1cc(NS(=O)(=O)c2ccc(C(N)=O)cc2)c(OC)cc1Cl [Compound 27, 4-(N-(4-chloro-2,5-dimethoxyphenyl)sulfamoyl)benzamide] | lost activity | 94% |  | 103% | 91.0% |  | 
12 |  |  | CCOC(=O)c1ccc(S(=O)(=O)Nc2cc(OC)c(Cl)cc2OC)cc1 [Compound 29, Ethyl 4-(N-(4-chloro-2,5-dimethoxyphenyl)sulfamoyl)benzoate] | retained partial activity | 169% |  | 189% | 70.8% |  | 
13 |  |  | CNC(=O)c1ccc(S(=O)(=O)Nc2cc(OC)c(Cl)cc2OC)cc1 [Compound 30, 4-(N-(4-chloro-2,5-dimethoxyphenyl)sulfamoyl)-N-methylbenzamide] | completely inactive | 105% |  | 103% | 77.0% |  | 
